Organism: Rattus norvegicus
Experiment: DrugMatrix - Regimen: Daily Repeat
Assay type: toxicity, organism-based, Sprague-Dawley
Parameters: regimen Daily Repeat, gender Male, age 6-8 weeks
Conditions: in vivo, po, route oral GAVAGE, […]; for ABSOLUTE BASOPHIL / BASOPHIL / NUCLEATED RED BLOOD CELLS / ABSOLUTE EOSINOPHIL / EOSINOPHIL / HEMOGLOBIN / ABSOLUTE LYMPHOCYTE / ABSOLUTE MONOCYTE / ABSOLUTE SEGMENTED NEUTROPHIL / ERYTHROCYTE COUNT / HEMATOCRIT / LEUKOCYTE COUNT / LYMPHOCYTE / MEAN CORPUSCULAR HEMOGLOBIN / MEAN CORPUSCULAR HEMOGLOBIN CONCENTRATION / MEAN CORPUSCULAR VOLUME / MONOCYTE / NEUTROPHIL / PLATELET COUNT: tissue Blood; for TOTAL BILIRUBIN / ALANINE AMINOTRANSFERASE / ALBUMIN / ALKALINE PHOSPHATASE / ASPARTATE AMINOTRANSFERASE / BLOOD UREA NITROGEN / CARBON DIOXIDE / CHLORIDE / CHOLESTEROL / CREATINE PHOSPHOKINASE / CREATININE / GLUCOSE / LACTATE DEHYDROGENASE / LIPASE / PHOSPHORUS / POTASSIUM / SODIUM / TOTAL PROTEIN / URIC ACID: tissue Plasma
[1] = 0 mg/kg, 72 h, dose level Control, time 3 day
[2] = 0 mg/kg, 120 h, dose level Control, time 5 day
[3] = 3 mg/kg, 72 h, dose level Low, time 3 day
[4] = 3 mg/kg, 120 h, dose level Low, time 5 day
[5] = 9 mg/kg, 72 h, dose level M1, time 3 day

SMILES: CS(=O)(=O)OCCCCOS(C)(=O)=O [BUSULFAN]
- ABSOLUTE BASOPHIL [1]: 0 CELLS/uL
- BASOPHIL [1]: 0%
- NUCLEATED RED BLOOD CELLS [1]: 0 /100WBC
- TOTAL BILIRUBIN [1]: 0.2 mg/dL
- ABSOLUTE BASOPHIL [2]: 0 CELLS/uL
- ABSOLUTE EOSINOPHIL [2]: 0 CELLS/uL
- BASOPHIL [2]: 0%
- EOSINOPHIL [2]: 0%
- HEMOGLOBIN [2]: 13.5 G/DL
- ABSOLUTE BASOPHIL [3]: 0 CELLS/uL
- ABSOLUTE EOSINOPHIL [3]: 108.33 CELLS/uL
- ABSOLUTE LYMPHOCYTE [3]: 8850.33 CELLS/uL
- ABSOLUTE MONOCYTE [3]: 34.33 CELLS/uL
- ABSOLUTE SEGMENTED NEUTROPHIL [3]: 773.67 CELLS/uL
- BASOPHIL [3]: 0%
- EOSINOPHIL [3]: 1%
- ERYTHROCYTE COUNT [3]: 4.94 x10E6/uL
- HEMATOCRIT [3]: 32%
- HEMOGLOBIN [3]: 12.67 G/DL
- LEUKOCYTE COUNT [3]: 9.77 x10E3/uL
- LYMPHOCYTE [3]: 91%
- MEAN CORPUSCULAR HEMOGLOBIN [3]: 25.67 pg
- MEAN CORPUSCULAR HEMOGLOBIN CONCENTRATION [3]: 39.6 G/DL
- MEAN CORPUSCULAR VOLUME [3]: 64.8 fL
- MONOCYTE [3]: 0.33%
- NEUTROPHIL [3]: 7.67%
- NUCLEATED RED BLOOD CELLS [3]: 0 /100WBC
- PLATELET COUNT [3]: 940.33 x10E3/uL
- ALANINE AMINOTRANSFERASE [3]: 62.33 u/L
- ALBUMIN [3]: 3.77 G/DL
- ALKALINE PHOSPHATASE [3]: 286.67 u/L
- ASPARTATE AMINOTRANSFERASE [3]: 86.67 u/L
- BLOOD UREA NITROGEN [3]: 12.33 mg/dL
- CARBON DIOXIDE [3]: 33.5 mmol/L
- CHLORIDE [3]: 101 MEQ/L
- CHOLESTEROL [3]: 62.33 mg/dL
- CREATINE PHOSPHOKINASE [3]: 229.33 u/L
- CREATININE [3]: 0.12 mg/dL
- GLUCOSE [3]: 162.67 mg/dL
- LACTATE DEHYDROGENASE [3]: 71.67 u/L
- LIPASE [3]: 12 u/L
- PHOSPHORUS [3]: 10 mg/dL
- POTASSIUM [3]: 5.22 MEQ/L
- SODIUM [3]: 144.35 MEQ/L
- TOTAL BILIRUBIN [3]: 0.13 mg/dL
- TOTAL PROTEIN [3]: 5.37 G/DL
- URIC ACID [3]: 0.47 mg/dL
- ABSOLUTE BASOPHIL [4]: 0 CELLS/uL
- ABSOLUTE EOSINOPHIL [4]: 12.67 CELLS/uL
- ABSOLUTE LYMPHOCYTE [4]: 5804 CELLS/uL
- ABSOLUTE MONOCYTE [4]: 73.33 CELLS/uL
- ABSOLUTE SEGMENTED NEUTROPHIL [4]: 310 CELLS/uL
- BASOPHIL [4]: 0%
- EOSINOPHIL [4]: 0.33%
- ERYTHROCYTE COUNT [4]: 5.4 x10E6/uL
- HEMATOCRIT [4]: 33.53%
- HEMOGLOBIN [4]: 12.9 G/DL
- LEUKOCYTE COUNT [4]: 6.2 x10E3/uL
- LYMPHOCYTE [4]: 92.67%
- MEAN CORPUSCULAR HEMOGLOBIN [4]: 23.9 pg
- MEAN CORPUSCULAR HEMOGLOBIN CONCENTRATION [4]: 38.5 G/DL
- MEAN CORPUSCULAR VOLUME [4]: 62.07 fL
- MONOCYTE [4]: 1.33%
- NEUTROPHIL [4]: 5.67%
- NUCLEATED RED BLOOD CELLS [4]: 0 /100WBC
- PLATELET COUNT [4]: 1068.67 x10E3/uL
- ALANINE AMINOTRANSFERASE [4]: 47.67 u/L
- ALBUMIN [4]: 4.13 G/DL
- ALKALINE PHOSPHATASE [4]: 363 u/L
- ASPARTATE AMINOTRANSFERASE [4]: 87 u/L
- BLOOD UREA NITROGEN [4]: 12.33 mg/dL
- CARBON DIOXIDE [4]: 28.67 mmol/L
- CHLORIDE [4]: 100 MEQ/L
- CHOLESTEROL [4]: 62 mg/dL
- CREATINE PHOSPHOKINASE [4]: 290.67 u/L
- CREATININE [4]: 0.16 mg/dL
- GLUCOSE [4]: 165.67 mg/dL
- LACTATE DEHYDROGENASE [4]: 77.67 u/L
- LIPASE [4]: 13.33 u/L
- PHOSPHORUS [4]: 9.3 mg/dL
- POTASSIUM [4]: 5.76 MEQ/L
- SODIUM [4]: 145.25 MEQ/L
- TOTAL BILIRUBIN [4]: 0.17 mg/dL
- TOTAL PROTEIN [4]: 6 G/DL
- URIC ACID [4]: 0.53 mg/dL
- ABSOLUTE BASOPHIL [5]: 0 CELLS/uL
- ABSOLUTE EOSINOPHIL [5]: 0 CELLS/uL
- ABSOLUTE LYMPHOCYTE [5]: 12304.67 CELLS/uL
- ABSOLUTE MONOCYTE [5]: 88.33 CELLS/uL
- ABSOLUTE SEGMENTED NEUTROPHIL [5]: 840.33 CELLS/uL
- BASOPHIL [5]: 0%
- EOSINOPHIL [5]: 0%
- ERYTHROCYTE COUNT [5]: 5.46 x10E6/uL
- HEMATOCRIT [5]: 33.63%
- HEMOGLOBIN [5]: 13.23 G/DL
- LEUKOCYTE COUNT [5]: 13.23 x10E3/uL
- LYMPHOCYTE [5]: 92.67%
- MEAN CORPUSCULAR HEMOGLOBIN [5]: 24.27 pg
- MEAN CORPUSCULAR HEMOGLOBIN CONCENTRATION [5]: 39.37 G/DL
- MEAN CORPUSCULAR VOLUME [5]: 61.57 fL
- MONOCYTE [5]: 0.67%
- NEUTROPHIL [5]: 6.67%
- NUCLEATED RED BLOOD CELLS [5]: 0 /100WBC
- PLATELET COUNT [5]: 1234.33 x10E3/uL
- ALANINE AMINOTRANSFERASE [5]: 56.33 u/L
- ALBUMIN [5]: 4.03 G/DL
- ALKALINE PHOSPHATASE [5]: 362 u/L
- ASPARTATE AMINOTRANSFERASE [5]: 76 u/L
- BLOOD UREA NITROGEN [5]: 13 mg/dL
- CARBON DIOXIDE [5]: 29.33 mmol/L
- CHLORIDE [5]: 102.33 MEQ/L
- CHOLESTEROL [5]: 77 mg/dL
- CREATINE PHOSPHOKINASE [5]: 320.33 u/L
- CREATININE [5]: 0.19 mg/dL
- GLUCOSE [5]: 162.67 mg/dL
- LACTATE DEHYDROGENASE [5]: 161.33 u/L
- LIPASE [5]: 12 u/L
- PHOSPHORUS [5]: 10.37 mg/dL

Reference: ChEMBL document CHEMBL3885881, “DrugMatrix”
